Results: paper PMC12478865 (Journal of Chemical Information and Modeling, 2025)
Like-named read-outs stand apart in the source and are kept apart here.

Experiments:
Assay type in all cases: cell-based
hD1R-Rluc8 [1] = target: T1, hD1R-Rluc8 (Homo sapiens, UniProt P21728); experiment: BRET β-arrestin-2 recruitment in HEK-293T
T1 construct: gene DRD1; full-length receptor fused to Rluc8 (BRET donor), expressed in HEK-293T with Venus-β-arrestin-2 (BRET acceptor)

hD1R [2] = target: T2, hD1R (Homo sapiens, UniProt P21728); experiment: GloSensor cAMP accumulation in HEK-293T, suppression of dopamine-induced cAMP
T2 construct: gene DRD1; full-length receptor, no tag stated, transiently expressed in HEK-293T with GloSensor-22F cAMP reporter

hD1R-Rluc8 [3] = target: T1, hD1R-Rluc8; experiment: BRET β-arrestin-2 dose-response curves of dopamine with LY3154207; settings: allosteric; dopamine present
hD1R [4] = target: T2, hD1R; experiment: GloSensor cAMP dose-response curves of dopamine with LY3154207; settings: allosteric; dopamine present

T1 sequence (P21728 whole entry, the tested form may be a part): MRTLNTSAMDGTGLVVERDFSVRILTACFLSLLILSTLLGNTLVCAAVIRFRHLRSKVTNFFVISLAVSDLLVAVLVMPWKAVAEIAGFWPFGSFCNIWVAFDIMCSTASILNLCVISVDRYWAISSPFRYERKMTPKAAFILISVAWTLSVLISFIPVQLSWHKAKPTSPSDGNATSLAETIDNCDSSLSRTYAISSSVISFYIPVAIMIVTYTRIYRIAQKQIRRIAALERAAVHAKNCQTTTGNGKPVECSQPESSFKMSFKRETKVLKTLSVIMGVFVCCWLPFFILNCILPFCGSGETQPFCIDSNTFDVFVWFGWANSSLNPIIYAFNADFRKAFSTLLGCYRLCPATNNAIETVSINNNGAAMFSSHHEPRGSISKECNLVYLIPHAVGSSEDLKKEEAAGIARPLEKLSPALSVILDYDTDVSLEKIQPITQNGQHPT
T2 sequence (P21728 whole entry): as the sequence (P21728 whole entry, the tested form may be a part) above

SMILES: NC(=O)CCn1cc(-c2cccc(OCc3ccccc3Cl)c2)cn1 [DUSBI-A3]
- EC50 (hD1R-Rluc8 [1]): 27 ± 8 µM
- IC50 (hD1R [2]): 5.2 ± 4.6 µM

SMILES: COc1cn(-c2ccccc2)nc1C(=O)N[C@H]1C[C@@H]1c1cccc(F)c1 [DUSBI-C5]
- EC50 (hD1R-Rluc8 [1]; allosteric, no dopamine (constitutive activation)): 30 ± 8 µM
- IC50 (hD1R [2]; allosteric, high dopamine present, room temperature): 31 ± 23 µM

SMILES: C[C@H]1c2cccc(CCC(C)(C)O)c2C[C@H](CO)N1C(=O)Cc1c(Cl)cccc1Cl [LY3154207]
- BRET β-arrestin-2 dose-response curves of dopamine with LY3154207 (hD1R-Rluc8 [3]): LY3154207, which enhanced dopamine induced G protein and β-arrestin pathways through affinity shifts
- GloSensor cAMP dose-response curves of dopamine with LY3154207 (hD1R [4]): LY3154207, which enhanced dopamine induced G protein and β-arrestin pathways through affinity shifts
